Holding throughout (experiment): NCI-60 one-dose screening
Type in all cases: cell-based

The test system of one test is EKVX. The note with it: Homo sapiens, Non-Small Cell Lung Cancer, read-out: GI (%).
The test system of the next test is UACC-62. The note with it: Homo sapiens, UACC-62, Melanoma, read-out: GI (%).
In a further test the test system is SK-MEL-5. The note with it: Homo sapiens, SK-MEL-5, Melanoma, read-out: GI (%).
In another test the test system is HS 578T. The note with it: Homo sapiens, Breast Cancer, read-out: GI (%).
The test system of another test is SK-MEL-28. The note with it: Homo sapiens, SK-MEL-28, Melanoma, read-out: GI (%).
In another test the test system is NCI-H522. The note with it: Homo sapiens, NCI-H522, Non-Small Cell Lung Cancer, read-out: GI (%).
The subject of a further test is BT-549. The note with it: Homo sapiens, BT-549, Breast Cancer, read-out: GI (%).
Another test has as its system OVCAR-3. The note with it: Homo sapiens, OVCAR-3, 10 μM; OVCAR-3, Ovarian Cancer; read-out: GI (%).
The next test has as its system SF-295. The note with it: Homo sapiens, SF-295, CNS Cancer, read-out: GI (%).
The subject of another test is MOLT-4. The note with it: Homo sapiens, MOLT-4, Leukemias, read-out: GI (%).
For a further test, the system named is HL-60(TB). The note with it: Homo sapiens, Leukemias, read-out: GI (%).
The next test relates to NCI-H23. The note with it: Homo sapiens, NCI-H23, Non-Small Cell Lung Cancer, read-out: GI (%).
For the next test, the system named is SNB-19. The note with it: Homo sapiens, SNB-19, CNS Cancer, read-out: GI (%).
Another test deals with UO-31. The note with it: Homo sapiens, UO-31, Renal Cancer, read-out: GI (%).
In the next test the test system is OVCAR-4. The note with it: Homo sapiens, OVCAR-4, 10 μM; OVCAR-4, Ovarian Cancer; read-out: GI (%).
The test system of a further test is T-47D. The note with it: Homo sapiens, T47D, Breast Cancer, read-out: GI (%).
The test system of a further test is HCC-2998. The note with it: Homo sapiens, HCC-2998, Colon Cancer, read-out: GI (%).
For another test, the system named is A549/ATCC. The note with it: Homo sapiens, Non-Small Cell Lung Cancer, read-out: GI (%).
In a further test the test system is NCI/ADR-RES. The note with it: Homo sapiens, Ovarian Cancer, read-out: GI (%).
Another test concerns SK-MEL-2. The note with it: Homo sapiens, SK-MEL-2, Melanoma, read-out: GI (%).
Another test relates to SF-268. The note with it: Homo sapiens, SF-268, CNS Cancer, read-out: GI (%).

Molecules are shown by their SMILES.

Here are results for seven molecules from article PMC9948168, “Vanillin-Based Indolin-2-one Derivative Bearing a Pyridyl Moiety as a Promising Anti-Breast Cancer Agent via Anti-Estrogenic Activity” (ACS Omega, 2023).

In the case of `COc1ccc(COc2ccc(/C=C3/C(=O)Nc4ccccc43)cc2OC)cc1` [6d], the inhibition at 10 µM was 0.23% with EKVX; 3.29% with UACC-62; -7.74% in the test with SK-MEL-5; -5.29% in the test on HS 578T; -6.58% in the test with SK-MEL-28; 6.6% in the test with NCI-H522. In addition, the inhibition at 10 µM was 7.88% with BT-549; -14.7% with OVCAR-3; -3.32% in the test with SF-295; -1.85% in the test on MOLT-4; -14.7% in the test on HL-60(TB); -2.85% with NCI-H23. For the same molecule, the inhibition at 10 µM with SNB-19 is 2.66%; in the test with UO-31, 19.6%; with OVCAR-4 it was 0.17%; in the test on T-47D, -12.8%; in the test with HCC-2998 it was -2.21%; with A549/ATCC, -9.19%. For the same molecule, the inhibition at 10 µM with NCI/ADR-RES is -6.16%; with SK-MEL-2, -8.22%; with SF-268, -3%.
Turning to `COc1cc(C=C2C(=O)Nc3cc(Cl)ccc32)ccc1OCc1ccc(Cl)cc1` (mixture of isomers) [6l], the inhibition at 10 µM is 24.8% with EKVX; 11.1% in the test on UACC-62; 1.7% in the test on SK-MEL-5; 4.96% with HS 578T; -1.11% in the test on SK-MEL-28; 4.01% with NCI-H522. For the same molecule, the inhibition at 10 µM in the test on BT-549 was 6.99%; in the test with OVCAR-3 it was -3.06%; in the test with SF-295, 2.01%; in the test on MOLT-4, 6.35%; in the test with HL-60(TB), -11.5%; with NCI-H23 it was 0.58%. Also, the inhibition at 10 µM in the test on SNB-19 was -5.43%; in the test with UO-31 it was 22.2%; in the test on OVCAR-4 it was 25.6%; in the test with T-47D it was 14.8%; in the test with HCC-2998, -18.5%; in the test with A549/ATCC it was -5.86%. The inhibition at 10 µM in the test with NCI/ADR-RES was 0.31%; in the test with SK-MEL-2 it was -8.37%; in the test on SF-268 it was -5.63%.
With `COc1cc(/C=C2/C(=O)Nc3cc(Cl)ccc32)ccc1OCc1ccc(F)cc1` [6m], the inhibition at 10 µM in the test with EKVX is 23.5%; in the test with UACC-62, 11.2%; in the test with SK-MEL-5 it was 1.04%; in the test with HS 578T, 8.25%; with SK-MEL-28, -5.13%; in the test with NCI-H522 it was 7.08%. In addition, the inhibition at 10 µM with BT-549 was 4.26%; in the test on OVCAR-3, -1.69%; in the test with SF-295 it was 2.87%; in the test on MOLT-4, -0.43%; in the test with HL-60(TB), -20.4%; in the test with NCI-H23 it was -0.55%. Further, the inhibition at 10 µM in the test on SNB-19 is -3.75%; with UO-31 it was 20.2%; in the test with OVCAR-4, 16.8%; in the test on T-47D, 5.94%; with HCC-2998, 3.17%; in the test on A549/ATCC, -9.5%. The inhibition at 10 µM in the test with NCI/ADR-RES was -0.91%; in the test with SK-MEL-2, 0.15%; in the test with SF-268, -0.8%.
As for `COc1ccc(COc2ccc(/C=C3/C(=O)Nc4cc(Cl)ccc43)cc2OC)cc1` [6n], the inhibition at 10 µM in the test on EKVX was 13.1%; in the test on UACC-62, 12.2%; with SK-MEL-5 it was 3.06%; in the test on HS 578T it was 0.21%; with SK-MEL-28 it was -2.94%; in the test on NCI-H522, 11.5%. Besides, the inhibition at 10 µM in the test with BT-549 is 0.06%; in the test with OVCAR-3 it was -5.39%; in the test on SF-295 it was -2.14%; in the test with MOLT-4 it was 0.87%; with HL-60(TB) it was -13.9%; in the test with NCI-H23, 2.17%. In addition, the inhibition at 10 µM in the test on SNB-19 is 1.46%; in the test on UO-31, 18.6%; in the test on OVCAR-4, 17.6%; with T-47D, 12.8%; in the test with HCC-2998, -22.2%; with A549/ATCC, -12.9%. In addition, the inhibition at 10 µM in the test on NCI/ADR-RES is 0.37%; in the test with SK-MEL-2, -0.29%; in the test with SF-268, 0.26%.
With `COc1cc(/C=C2/C(=O)Nc3ccccc32)ccc1OCc1ccc(F)cc1` [6c], the inhibition at 10 µM was 2.35% in the test with EKVX; 7.29% in the test on UACC-62; -2.32% in the test with SK-MEL-5; -15.2% in the test with HS 578T; -10.2% in the test on SK-MEL-28; 8.05% in the test on NCI-H522. In addition, the inhibition at 10 µM was -15.7% in the test on BT-549; -16.7% with OVCAR-3; -1.97% in the test on SF-295; 3.23% in the test on MOLT-4; -15.2% with HL-60(TB); 1.03% in the test with NCI-H23. For the same molecule, the inhibition at 10 µM in the test on SNB-19 is 0.68%; in the test with UO-31, 15.3%; with OVCAR-4 it was -2.67%; in the test with T-47D it was -6.65%; in the test with HCC-2998 it was -18.9%; in the test on A549/ATCC, -7.83%. Further, the figures for the inhibition at 10 µM in the test on NCI/ADR-RES, in the test on SK-MEL-2 and in the test on SF-268 were -2.39%, -7.35% and -5.39%, respectively.
Take `COc1cc(/C=C2/C(=O)Nc3ccccc32)ccc1OCc1ccc(Cl)cc1` [6b]: the inhibition at 10 µM with EKVX is 4.66%; with UACC-62, 12.4%; with SK-MEL-5, -2.87%; in the test on HS 578T it was -4.77%; in the test on SK-MEL-28, 7.06%; in the test with NCI-H522, 4.25%. The inhibition at 10 µM with BT-549 is -9.1%; in the test on OVCAR-3 it was -5.51%; with SF-295, -2.92%; in the test with MOLT-4, 6.07%; in the test with HL-60(TB), -13.4%; in the test on NCI-H23 it was 6.66%. In addition, the inhibition at 10 µM with SNB-19 was 2.91%; in the test with UO-31, 18.7%; with OVCAR-4, 0.89%; in the test with T-47D, -6.94%; with HCC-2998, -23.5%; in the test on A549/ATCC, -7.18%. Moreover, the values for the inhibition at 10 µM with NCI/ADR-RES, in the test with SK-MEL-2 and in the test on SF-268 were -0.22%, -5.45% and 1.43%, respectively.
`COc1cc(/C=C2/C(=O)Nc3cc(Cl)ccc32)ccc1OCc1ccccc1` [6k]: the inhibition at 10 µM was 17.2% with EKVX; 6.07% with UACC-62; -1.43% with SK-MEL-5; 0.08% in the test with HS 578T; -6.39% in the test on SK-MEL-28; 4.41% in the test with NCI-H522. Also, the inhibition at 10 µM in the test with BT-549 is 16.8%; in the test with OVCAR-3, -3.45%; in the test on SF-295, -1.02%; with MOLT-4, 4.75%; in the test on HL-60(TB), -20.2%; in the test on NCI-H23, 2.27%. Further, the inhibition at 10 µM in the test on SNB-19 is 1.7%; with UO-31, 16.2%; in the test with OVCAR-4 it was 10.4%; with T-47D, -0.39%; in the test on HCC-2998, 0.85%; in the test with A549/ATCC, -8.61%. Besides, the figures for the inhibition at 10 µM with NCI/ADR-RES, in the test on SK-MEL-2 and with SF-268 were -3.53%, -5.05% and -1.04%, respectively.
